Values quoted from earlier work, collected in US6388175B1, “Control of leaf scald disease” (priority 1995, dated 2002).
Entries after “also recorded” stand apart in the source; their conditions may differ.

Settings: 100° C. for 30 min

## albicidin
  Activity after heating: unaffected; also recorded: little activity is lost
